Source: patent US20170356900A1, “TOXICANT ASSAYS FOR COSMETIC PRODUCTS” (priority 2016, published 2017)

Test system: zebrafish (Danio rerio) AB strain embryos
Assay: Acute toxicity testing using zebrafish embryos (mortality after 48 hr exposure)
Assay type: in vivo
Conditions: positive control, 3.7 mg/L; 48 hr exposure at 26° C.
Experimental: Extracts prepared as described in Example 1 were tested for acute toxicity using zebrafish (Danio rerio) AB strain embryos. BB cream extracts were diluted into zebrafish embryo culture medium at nominal concentrations of 0.3, 0.6, 1.4, 3.0 and 6.7 g/L. Zebrafish AB strain embryos of 4-128 cell stages were exposed to extract dilutions in a 96-well plate at 1 embryo per well. Each concentration was tested with 20 embryos. Zebrafish embryo culture medium and 3.7 mg/L dichloroaniline were included as negative and positive controls, respectively. After 48 hr exposure at 26° C., zebrafish embryos were observed under a stereomicroscope and fish embryos that were coagulated, tail not detached, and having no heart beat were marked as dead. Mortality rate for each concentration was calculated as the acute toxicity endpoint. The mortality rate for the negative control was 0% and for the positive control was 30%. […] Of the three BB cream extracts, brand C was the most toxic and brand B was the least toxic to zebrafish embryos.

Q: `Nc1ccc(Cl)c(Cl)c1` [dichloroaniline] was tested. Which mortality rate did it give?
A: 30%
